Source: patent US5932619A, “Method for preventing sexually transmitted diseases” (Rush-Presbyterian, St. Luke's Medical Center, priority 1997, dated 1999)
≈ marks a conversion by molar mass, not a printed value. Entries after “also recorded” stand apart in the source; their conditions may differ.

What was measured:
[1] = tested on: HSV (type 2, strain 333); assay: Anti-HSV plaque assay on Vero cells; format: cell-based, herpes simplex virus
Procedure: Viral infectivity was measured by co-culturing herpes simplex virus (HSV) with Vero (African green monkey kidney) cells in phosphate-buffered solutions.
The test agent was serially diluted (0.1 μg/ml to 500 μg/ml) in phosphate-buffered saline (PBS). Each dilution was mixed with HSV (type 2, strain 333). Samples (1 ml) of each mixture were plated in triplicate on washed and drained monolayers of Vero (African green monkey kidney) cells on the bottom of […] flasks. The initial titer in each culture was determined as plaque forming units per milliliter using control cultures with no added test agents. Flasks were incubated at 37° C. for 2 hours and the medium (containing virus and test agent) removed. After washing the cells with PBS, the cells were cultured in supplemented medium 199 (Sigma Chem., cat. no. M9163) for 3 days. After culturing, the cells were stained with Giemsa and the number of viral plaques was determined by phase contrast microscopy. After correcting for dilutions, the viral titer was estimated from the number of plaques. Data were also expressed as the percentage of plaques relative to the control samples (not exposed to test agents). […] The concentration of test agent that was required to reduce the viral titer by 50 percent (IC50) was estimated with curve-fitting software from plots of plaque-forming units per milliliter against the concentration of test agent.

[2] = tested on: Lactobacillus gasseri; assay: Growth of normal vaginal flora bacterium in culture; format: cell-based
Procedure: This example illustrates the effect of the inhibitory agents of this invention on the normal vaginal flora. Lactobacillus gasseri, which is found in normal vaginal flora, was obtained from the American Type Culture Collection (Rockville, Md.) and cultured under anaerobic conditions at 37° C. in the presence of the desired test agents. Control samples without added test agents were also run. Samples were collected at twenty minute intervals starting at 120 minutes after the start of incubation through 240 minutes. The absorbance at 550 nm was used to estimate the cell density and inhibitory effects. Nonoxynol-9 was also evaluated for comparison purposes.

[3] = tested on: sperm; assay: Sperm acrosomal loss; format: cell-based; conditions: 0.5 μg/ml, read-out: maximal acrosomal loss induced
[4] = tested on: HIV-1; assay: Viral binding inhibition assay (syncytia formation in MT2 cells); format: cell-based, HIV-1 (strain III)
Procedure: Cultures of MT2 cells (plated in 96-well cell culture plates at about 10,000 cells per well) were grown in a RPMI 1640 medium (Gibco, cat. no. 320-1867AG) which was supplemented with 10 percent fetal bovine serum, 100 I.U./ml penicillin, 100 μg/ml streptomycin, 20 μg/ml gentamicin, and 25 mM HEPES.
The resulting cultures were incubated at 37° C. […] The cultures were then scored microscopically for syncytia formation. […] Data are expressed as percent of a control value (no added test agent) viral titer and plotted as a function of concentration of the test agent. lC50 values (concentration of agent causing 50 percent inhibition) were calculated from the plots of concentration versus viral titer using curve-fitting software.

[5] = tested on: sheep testicular hyaluronidase; assay: Hyaluronidase inhibition (hyaluronic acid hydrolysis); format: biochemical; conditions: for IC50: pH 5.5, 10 minutes preincubation
Procedure: Hyaluronidase activity was quantitatively determined by measuring the extent of hyaluronic acid hydrolysis (i.e., the concentration of N-acetylglucosamine-reactive material formed from enzyme activity). Reaction mixtures (0.25 ml) containing the following were prepared: test compound (variable concentration); 0.1 M sodium acetate; 0.15 M sodium chloride; pH adjusted to 5.5; 7.2 units sheep testicular hyaluronidase (Sigma, Type III; H-2251) contained in an acetate buffer; 0.3 mg/ml hyaluronic acid (Sigma, from bovine vitreous humor; H-7630). The enzyme was preincubated with the test agent (1 mg/ml for screening purposes) for 10 minutes before starting the reaction by the addition of hyaluronic acid. The enzyme reaction was determined using the method of Aronson and Davidson (J. Biol. Chem. 241 437-440 (1967)). The reaction mixture was incubated for 30 minutes at room temperature. The reaction product was determined colorimetrically with p-dimethylaminobenzaldehyde (Reissig et al., J. Biol. Chem. 217 959-966 (1965)) by measuring the absorbance at 545 nm.
The reversibility of the hyaluronidase was determined by evaluating enzyme activity at different levels of enzyme (Ackermann and Potter, Proc. Soc. Exp. Biol. Med. 72 1-9 (1949)).

[6] = tested on: rabbit spermatozoa; assay: Contraceptive effect: rabbit sperm treated before artificial insemination; format: in vivo
Procedure: Rabbit spermatozoa were collected and then diluted in a TALP buffer containing glucose, lactate, and pyruvate. Test compounds were dissolved in the same buffer system.

[7] = tested on: human immunodeficiency virus (HIV-1, RF strain); assay: microbe, parasite or virus in culture; conditions: Human immunodeficiency virus 1, read-out: kill of the virus in culture
Procedure: For the cell-free virus inactivation assay, HIV is added to the test agent in water and incubated for about 2 minutes. After removal of the test agent by dilution, the treated virus is added to target cells and incubated for 7 days.

[8] = tested on: spermatozoa; format: cell-based; conditions: concentrations as high as 20 mg/ml
[9] = tested on: Chlamydia trachomatis (serotype E/UW-5/CS); assay: Chlamydia multiplication assay in HeLa monolayers; format: cell-based
Procedure: This example illustrates the inhibitory effect of several of the inhibitory agents of this invention on Chlamydia trachomatis using a multiplication assay. Immediately before the assay, cryopreserved Chlamydia trachomatis (serotype E/UW-5/CS) samples were quickly thawed at 37° C. and suspended in Hank's balanced salt solution (HBSS) by mild sonication. Serial 1:10 dilutions (10^-1 to 10^-7) of the bacterial suspension were made. HeLa monolayers on coverslips were inoculated with 100 μl of the chlamydia samples in the presence (0.1, 1.0, 10, 100, and 1000 μg/ml) or absence of the test agents. After one hour, the monolayers were washed with HBSS to remove free chlamydia and test agent (if present) and then incubated for 48 hours in HBSS at 37° C.
After the medium was removed, the HeLa monolayer samples were fixed in methanol and washed. The cells were then treated with Kallsted Chlamydia Culture Confirmation fluorescein-conjugated Monoclonal Antibody for 30 minutes at room temperature in a dark, humidified chamber. The cells were then washed with water and covered with coverslip using a mounting medium. Inclusions due to chlamydia infection were visualized with a fluorescent microscope as green fluorescence.

[10] = tested on: Neisseria gonorrhea; assay: Bacterial multiplication assay (gonococci); format: cell-based
Procedure: This example illustrates the inhibitory effect for several of the inhibitory agents of this invention on Neisseria gonorrhea using a bacterial multiplication assay. Neisseria gonorrhea isolated from local uncomplicated cases of gonorrhea was verified by Gram stain, oxidase reactivity, and sugar fermentation. The titer of log-phase cultures was adjusted by dilution in GC broth to about 10^8 colony forming units per milliliter. Samples were diluted with broth containing no additives (control) and serial dilutions of the test agents (1000 μg/ml to 0.1 μg/ml). The resulting cultures were incubated at 37° C. for 4 hours. Five serial dilutions were made with GC broth; each dilution was inoculated onto GC agar plates. The inoculated plates were incubated overnight at 37° C. and the resultant gonococcal colonies were counted using bright-field microscopy.

[11] = physchem; format: physicochemical
[12] = tested on: rabbit spermatozoa; assay: Motility of rabbit sperm in the contraceptive test; format: cell-based; conditions: rabbit sperm in TALP buffer
Procedure: Rabbit spermatozoa were collected and then diluted in a TALP buffer containing glucose, lactate, and pyruvate. Test compounds were dissolved in the same buffer system. […] Female rabbits were then artificially inseminated with about 0.5 ml of buffer containing about 22.5-30×10^6 sperm. For controls (i.e., sperm and buffer containing no added contraceptive agents), fertilization averaged about 96 percent.

[13] = tested on: MT2 cells; assay: Cytotoxicity towards host cells of the viral binding assay; format: cell-based; conditions: at the levels of the HIV viral binding assay
Procedure: Serial dilutions of the test compounds (ranging from 0.1 μg/ml to 1.0 mg/ml) were added to HIV-1 virus such that 50 μl inoculum produced between 70 to 100 syncytia per well in untreated wells containing MT2 cells. The HIV-1 used was strain III, propagated in, and harvested from, a T4-lymphobastoid cell line. Each serial dilution of the test compound with virus was placed in each of three wells containing MT2 cells. The test compound alone was added to a fourth well containing MT2 cells to test for possible cytotoxicity. Triplicate virus control samples (no added test compounds but containing the equivalent amounts of the RPMI medium) were also included.

[14] = tested on: vaginal/cervical epithelial and other cells; conditions: concentrations as low as; cited from earlier work

O=C(O)C(OC(C(=O)O)c1ccccc1)c1ccccc1 (stereo not drawn) [H2 SO4 -modified Mandelic Acid, 2,2'-diphenyl-2,2'-oxy-di-acetic acid]
HSV inhibition in culture ([1]; 10 μg/ml): completely inhibited | IC99.9 ([1]; Vero, read-out: Inhibition 3-Log (99.9 percent), concentration): 6.8 µg/mL | IC99.99 ([1]; Vero, read-out: Inhibition 4-Log (99.99 percent), concentration): 10 µg/mL | effect on normal vaginal flora [2]: no apparent adverse effects | effect on the growth of Lactobacillus ([2]; 5 mg/ml): did not have any effect; also recorded: not affected | Emax at 0.5 µg/mL [3]: ~70% | IC50 ([4]; Human immunodeficiency virus 1, HIV-1, MT2 cells): 0.3 µg/mL (≈ 0.00105 mM) | IC100 ([4]; Human immunodeficiency virus 1, read-out: Complete Inhibition (lowest concentration at which complete inhibition occurs), HIV-1, MT2 cells): 5 µg/mL | reversibility of hyaluronidase inhibition ([5]; enzyme activity at different levels of enzyme): irreversible | IC50 [5]: 8.4 µg/mL (≈ 0.0293 mM) | fertilization (average) ([6]; 5 mg/ml added to sperm/buffer, about 15 minutes at 37° C., controls about 96 percent): about 10% | conception ([6]; rabbit sperm treated with about 5 mg/ml prior to artificial insemination): nearly complete inhibition of conception | killing at 10 µg/mL [7]: ~99% | sperm motility [8]: did not result in the loss of sperm motility | IC50 [9]: 0.05 µg/mL (≈ 0.000175 mM) | inhibition of gonococcal multiplication/growth ([10]; 100 μg/ml): completely inhibited; also recorded: complete inhibition | IC50 ([10]; Neisseria, gonococcal multiplication, 4 hours): 15 to 17 µg/mL (≈ 0.0524 to 0.0594 mM) | water solubility (in words) [11]: water soluble | solubility ([11]; water): ~350 mg/mL (≈ 1220 mM) | sperm motility [12]: did not effect sperm motility

Nonoxynol-9 [reference compound]
inhibition of Lactobacillus gasseri growth ([2]; 0.5 mg/ml): about 60% | IC50 [5]: inactive | cytotoxicity towards the MT2 cells [13]: did show cytotoxic effects | concentration that can injure cells [14]: about 0.0005%
